Assay results published in patent US11578074B2, “Nitrogenous heterocyclic compound, preparation method, intermediate, composition, and application” (SHANGHAI PHARMACEUTICALS HOLDING CO., LTD., priority 2017, dated 2023).

Legend:
[1] = tested on: HER2 overexpressing human gastric cancer NCI-N87 nude mice xenograft; assay: HER2 overexpressing human gastric cancer NCI-N87 nude mice xenograft model; type: in vivo; conditions: continuous oral administration for 21 days
From the text: We have established nude mice xenograft model for HER2 overexpression.

[2] = In vivo pharmacokinetic study in mice; conditions: male, ICR, mouse, plasma, oral, 3 mg/kg intravenous, 10 mg/kg intragastric
Protocol: 24 male ICR mice weighing 18-22 g (provided by Shanghai Xipuerbikai Experimental Animal Co., Ltd, certificate No.: 20130016005759). The mice were fasted for feed but not water for 12-16 hours before the experiment. 24 mice were divided into 2 groups with 12 mice in each group. The first group was intravenously administrated with 3 mg/kg (which was dissolved by the ratio 0.9% physiological saline:PEG 400=8:2, to give a clear solution with a concentration of 0.3 mg/mL and a dosage volume of 10 mL/kg) of the final product of Embodiment 45. Blood samples were collected before administration and 2, 5, 15, 30, 60, 90, 120, 240, 360, 480, 600 and 1440 minutes after administration, respectively. The second group was intragastricly administrated with 10 mg/kg (0.5% CMC-Na was added and grounded into a uniform suspension with a concentration of 0.5 mg/mL and a dosage volume of 20 mL/kg) of the final product of Embodiment 45. […]
0.4 mL of blood was taken from fundus venous plexus of mice and rats into a heparinized centrifuge tube (10 μL heparin sodium solution/tube). […] After vortexing for 10 minutes and centrifuging at 6000 g and 4° C. for 10 minutes, the supernatant was diluted with mobile phase in a 96-well plate, and the drug concentration in plasma was determined by UPLC/MS-MS.

| SMILES | tolerability ([1]; 5 mg/kg, 10 mg/kg and 20 mg/kg) | tumor volume inhibition rate (GI %) ([1]; 5 mg/kg) [%] | tumor volume inhibition rate (GI %) ([1]; 10 mg/kg) [%] | tumor volume inhibition rate (GI %) ([1]; 20 mg/kg) [%] | bioavailability [2] [%] |
| --- | --- | --- | --- | --- | --- |
| CCOc1cc2ncnc(Nc3ccc(Oc4ccn5ncnc5c4)c(C)c3)c2cc1NC(=O)/C=C/[C@H]1CCCN1C [Final product of Embodiment 22, (R,E)-N-(4-((4-([1,2,4]triazolo[1,5-a]pyridin-7-yloxy)-3-methylphenyl)amino)-7-ethoxyquinazolin-6-yl)-3-(1-methylpyrrolidin-2-yl)acrylamide] | tolerant | 51.5 | 130.1 | 146.2 | – |
| CCOc1cc2ncnc(Nc3ccc(Oc4ccn5ncnc5c4)c(C)c3)c2cc1NC(=O)/C(F)=C/[C@H]1CCCN1C [Final product of Embodiment 45] | – | – | – | – | 87.7 |
